Measured values: patent US5204470A, “Azabicyclic derivatives” (John Wyeth & Brother, Limited, priority 1990, dated 1993)

Legend:
5-HT3 receptors [1] = target: T1, 5-HT3 receptors (Oryctolagus cuniculus, UniProt A0A5F9C9J3); assay: 5-HT3 antagonist activity in the isolated right atrium of the rabbit heart; assay type: cell-based; details: antagonism of 5-HT evoked increase in spontaneous rate of beating, read-out: apparent pKB (converted)
T1 construct: isolated right atrium of the rabbit heart; from tissue; host or cells: rabbit isolated right atrium (sympathetic nerve terminals)
T1 sequence (A0A5F9C9J3 1-494): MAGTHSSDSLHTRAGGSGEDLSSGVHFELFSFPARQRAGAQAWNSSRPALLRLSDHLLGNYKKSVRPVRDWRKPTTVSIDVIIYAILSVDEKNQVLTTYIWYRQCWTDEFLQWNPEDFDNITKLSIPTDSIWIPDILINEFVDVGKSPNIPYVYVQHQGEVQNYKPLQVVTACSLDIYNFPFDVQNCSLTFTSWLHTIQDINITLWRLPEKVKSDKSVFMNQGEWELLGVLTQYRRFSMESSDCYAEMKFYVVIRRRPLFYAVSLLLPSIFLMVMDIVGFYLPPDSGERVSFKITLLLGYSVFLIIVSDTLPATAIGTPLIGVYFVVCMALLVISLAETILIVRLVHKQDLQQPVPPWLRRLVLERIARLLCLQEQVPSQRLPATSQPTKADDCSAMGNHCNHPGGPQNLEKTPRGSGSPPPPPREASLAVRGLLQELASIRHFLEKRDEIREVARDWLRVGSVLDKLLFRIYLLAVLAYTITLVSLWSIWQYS
Experimental: The compounds of the invention are also tested for 5-HT3 antagonist activity in the isolated right atrium of the rabbit heart based upon the method of Fozard J. R., Naunyn-Schmiedeberg's Arch. Pharmacol., 1984, 326, 36-44. This procedure relies upon the ability of 5-HT to stimulate 5-HT3 receptors present on symphetic nerve terminals in the heart, causing release of noradrenaline which evokes an increase in the spontaneous rate of beating. The antagonist potency is expressed in a similar manner to that of the preceding test method i.e. as an apparent pKB.

5-HT3 receptors [2] = target: T2, 5-HT3 receptors (Rattus norvegicus, UniProt P35563); assay: 5-HT3 receptor antagonism in the isolated vagus nerve of the rat (5-HT induced depolarization); assay type: cell-based; details: isolated rat cervical vagus nerve; antagonism of 5-HT induced depolarization; estimated from 5-HT concentration ratios; read-out: apparent pKB (converted)
T2 construct: isolated vagus nerve of the rat; from tissue; host or cells: rat isolated (cervical) vagus nerve
T2 sequence (P35563 24-483): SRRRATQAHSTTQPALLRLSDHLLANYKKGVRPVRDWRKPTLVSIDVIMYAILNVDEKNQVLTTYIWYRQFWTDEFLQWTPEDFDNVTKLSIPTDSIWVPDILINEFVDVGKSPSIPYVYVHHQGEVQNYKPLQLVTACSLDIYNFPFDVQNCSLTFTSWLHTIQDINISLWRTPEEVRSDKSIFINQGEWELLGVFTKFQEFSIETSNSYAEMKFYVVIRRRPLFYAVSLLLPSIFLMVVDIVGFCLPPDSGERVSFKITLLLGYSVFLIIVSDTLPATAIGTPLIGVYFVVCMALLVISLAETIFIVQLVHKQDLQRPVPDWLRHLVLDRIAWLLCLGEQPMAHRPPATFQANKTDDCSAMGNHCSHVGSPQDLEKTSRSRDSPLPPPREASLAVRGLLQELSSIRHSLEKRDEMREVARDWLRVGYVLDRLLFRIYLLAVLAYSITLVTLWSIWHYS
Experimental: The compounds of the invention are tested for 5-HT3 receptor antagonism in the isolated vagus nerve of the rat by a method based upon that of Ireland S. J. and Tyers M. B., Brit. J. Pharmacol., 1987, 90, 229-238. The procedure relies upon the ability of 5-HT to induce depolarization of neurones in the cervical vagus nerve by a direct action on 5-HT3 receptors. A concentration-response curve to 5-HT induced depolarization is obtained and the antagonists are added to the bath containing the isolated nerve before repeating the 5-HT concentration-response curve. Antagonist potency is estimated for the 5-HT concentration ratios and expressed as an apparent pKB value (where KB is the antagonist dissociation constant).

CN1C2C=C(Cc3ccc4ccccc4n3)CC1CC2 (centres unmarked) [Example 2, 3-(2-Quinolinylmethyl)-8-methyl-8-azabicyclo[3.2.1]oct-2-ene]
Kb (5-HT3 receptors [1]): 0.00251 µM | Kb (5-HT3 receptors [2]): 0.0631 µM
